# Publication PMC12323131, “CSRP2 promotes the glioblastoma mesenchymal phenotype via p130Cas-mediated NF-κB and MAPK pathways” (Journal of Experimental & Clinical Cancer Research : CR, 2025)
# Target: T1, CSRP2 recombinant protein (Homo sapiens, UniProt Q16527)
# T1 construct: labelled with RED-NHS dye
# T1 sequence (Q16527 1-193): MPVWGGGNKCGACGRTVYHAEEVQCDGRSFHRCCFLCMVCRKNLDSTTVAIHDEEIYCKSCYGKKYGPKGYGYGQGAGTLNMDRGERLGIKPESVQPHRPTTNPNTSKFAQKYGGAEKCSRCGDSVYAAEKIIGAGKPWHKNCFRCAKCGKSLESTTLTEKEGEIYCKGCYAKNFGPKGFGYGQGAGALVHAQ
# Test: microscale thermophoresis
# Format: binding
structure (smiles),measurement,value
O=C1c2c(O)ccc(O)c2C(=O)c2c(NCCNCCO)ccc(NCCNCCO)c21 [Mitoxantrone],Kd,370 nM
